Measurements as given in patent publication US20240174723A1, “STAPLED ANTIMICROBIAL PEPTIDES (STAMPS) AND USES THEREOF” (Lytica Therapeutics, Inc., priority 2021, published 2024).
Positions of bridges follow the written chain, without caps; N, C: chain ends. Non-standard residues stand in square brackets, D forms with d. Residues, ends and D or L forms follow the SMILES beside them. S5 = C=CCCC[C@](C)(N)C(=O)O; Dap = NC[C@H](N)C(=O)O

Experiments:
[1] = test system: E. coli; assay type: cell-based, Escherichia coli
Procedure, shortened: (§1)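 Read-out is visible growth: the MIC is the minimum peptide concentration showing none after 20-24 h at 37 °C. Peptides were serially diluted from water stocks and mixed with log-phase bacteria (final 5×10^5 CFU/ml) in Mueller-Hinton or cation-adjusted Mueller-Hinton broth.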

[2] = test system: A. baumannii; assay type: cell-based, Acinetobacter baumannii
Procedure, shortened: as §1

[3] = test system: S. aureus; assay type: cell-based, Staphylococcus aureus
Procedure, shortened: as §1

[4] = test system: Human Renal Proximal Tubule Epithelial Cells (RPTEC); assay: in vitro; assay type: cell-based; conditions: 90 min
Procedure, shortened: (§2)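 RPTEC or HepG2 cells plated overnight, given fresh media, then serial StAMP dilutions (from 5 mg/mL water stock) or vehicle at 37 °C. Cytotoxicity read as LDH release into media, absorbance 490 nm; renal toxicity after 90 min, liver toxicity after 48 h incubation.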

[5] = test system: Human Liver Cells (HepG2); assay: in vitro; assay type: cell-based; conditions: 48 hours
Procedure, shortened: (§3)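 HepG2 cells in EMEM with 10% FBS, allowed 4 h to attach, then exposed to serial dilutions of StAMPs (from a 5 mg/mL water stock) or vehicle. After 48 h at 37 °C, viability read by CellTiter-Glo luminescence.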

[6] = test system: P. aeruginosa; assay type: cell-based, Pseudomonas aeruginosa
Procedure, shortened: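 Broth microdilution adapted from CLSI in MHB or cation-adjusted MHB; log-phase P. aeruginosa at 5×10^5 CFU/ml final with serially diluted stapled peptides. Incubated 20-24 h at 37 °C; MIC is the lowest concentration without visible growth.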

[7] = test system: K. pneumoniae; assay type: cell-based, Klebsiella pneumoniae
Procedure, shortened: as §1

[8] = in vitro; assay type: cell-based; conditions: human
Procedure, shortened: as §2

[9] = in vitro; assay type: cell-based; conditions: human, Inhibitory Concentration at 50% Cytotoxicity (IC50) Human Liver Cells (HepG2)
Procedure, shortened: as §3

Row | Compound | Minimum Inhibitory Concentration (MIC) E. coli [1] [µg/mL] | Minimum Inhibitory Concentration (MIC) A. baumannii [2] [µg/mL] | Minimum Inhibitory Concentration (MIC) S. aureus [3] [µg/mL] | Inhibitory Concentration at 50% Cytotoxicity (IC50) Human Renal Proximal Tubule Epithelial Cells (RPTEC) [4] [µg/mL] | Inhibitory Concentration at 50% Cytotoxicity (IC50) Human Liver Cells (HepG2) [5] [µg/mL] | Minimum Inhibitory Concentration (MIC) P. aeruginosa [6] [µg/mL] | Minimum Inhibitory Concentration (MIC) K. pneumoniae [7] [µg/mL] | IC50 at 90 min [8] [µg/mL] | IC50 at 48 hours [9] [µg/mL]
1 | CC(C)[C@@H]1NC(=O)[C@@](C)(NC(=O)[C@H](C)NC(=O)[C@H](CCCCN)NC(=O)CNC(=O)[C@H](Cc2ccccc2)NC(=O)[C@H](CCCCN)NC(=O)[C@H](CCCCN)NC(=O)[C@H](CCCCN)NC(=O)[C@H](CO)NC(=O)[C@H](Cc2c[nH]cn2)NC(=O)[C@]2(C)CCCC=CCCC[C@](C)(NC(=O)CN)C(=O)NCC(=O)N[C@@H](CCCCN)C(=O)N[C@@H](Cc3ccccc3)C(=O)N2)CCCC=CCCC[C@@](C)(C(=O)N[C@@H](C)C(=O)N[C@@H](CCCCN)C(=O)N[C@@H](CCCCN)C(N)=O)NC(=O)[C@H](CCC(=O)O)NC(=O)[C@H](Cc2c[nH]c3ccccc23)NC1=O (single isomer, unassigned) [compound 65] | 4 | 2 | 32 | 110 | 150 |  |  |  | 
2 | CC(C)[C@@H]1NC(=O)[C@@](C)(NC(=O)[C@H](C)NC(=O)[C@H](CCCCN)NC(=O)CNC(=O)[C@H](Cc2ccccc2)NC(=O)[C@H](CCCCN)NC(=O)[C@H](CCCCN)NC(=O)[C@H](CCCCN)NC(=O)[C@H](CCCCN)NC(=O)[C@H](CCN)NC(=O)[C@]2(C)CCCC=CCCC[C@](C)(NC(=O)CN)C(=O)NCC(=O)N[C@@H](CCCCN)C(=O)N[C@@H](Cc3ccccc3)C(=O)N2)CCCC=CCCC[C@@](C)(C(=O)N[C@@H](C)C(=O)N[C@@H](CCCCN)C(=O)N[C@@H](CCCCN)C(N)=O)NC(=O)[C@H](CCC(=O)O)NC(=O)CNC1=O (single isomer, unassigned) [compound 79] | 1 | 0.5 | >64 |  | 113 | 1 | 8 |  | 
3 | CC(C)[C@@H]1NC(=O)[C@@](C)(NC(=O)[C@H](C)NC(=O)[C@H](CN)NC(=O)CNC(=O)[C@H](Cc2ccccc2)NC(=O)[C@H](CN)NC(=O)[C@H](CN)NC(=O)[C@H](CN)NC(=O)[C@H](CN)NC(=O)[C@H](CN)NC(=O)[C@]2(C)CCCC=CCCC[C@](C)(NC(=O)CN)C(=O)NCC(=O)N[C@@H](CN)C(=O)N[C@@H](Cc3ccccc3)C(=O)N2)CCCC=CCCC[C@@](C)(C(=O)N[C@@H](C)C(=O)N[C@@H](CCCCN)C(=O)N[C@@H](CCCCN)C(N)=O)NC(=O)[C@H](CCC(=O)O)NC(=O)CNC1=O [compound 78] (H-G[S5]G[Dap]F[S5][Dap][Dap][Dap][Dap][Dap]FG[Dap]A[S5]VGE[S5]AKK-NH2; staple 2-6, 16-20) | 16 | 8 | >64 |  |  | 2 | 16 | > 200 | > 200
